Measurements reported in patent US20080031884A1, “COMPOSITIONS AND METHODS FOR TREATING, REDUCING, AMELIORATING, OR ALLEVIATING POSTERIOR-SEGMENT OPHTHALMIC DISEASES” (priority 2006, published 2008).
Values joined by “and” are separate entries in the source; they are usually repeats but may differ in a detail not shown here. Equal values may be shown once. “Also recorded” adds a separate entry of the source.

Columns and labels:
[1] = tested on: rabbit eye (anterior chamber paracentesis); experiment: Rabbit paracentesis model, overall anti-inflammatory activity; type: in vivo; details: 0.1%, 0.5% and 1% topical formulations; preliminary conclusions; listed as BOL-303242-X
Excerpt: Inflammatory processes are multidimensional in origin, and are characterized by complex cellular and molecular events involving numerous components all of which have not been identified. Prostaglandins are among these mediators and play an important role in certain forms of ocular inflammation. Paracentesis of the anterior chamber in the rabbit eye induces inflammatory reaction due to the disruption of the blood-aqueous barrier (“BAB”), which is mediated, at least in part, by prostaglandin E2 [References 1-3 below]. Intraocular or topical administration of PGE2 disrupts the BAB. [Reference 4, below] The treatment schedule adopted in this study was similar to the clinical NSAIDs (Ocufen) treatment schedule used by surgeons for patients before cataract surgery.
Each rabbit was placed in a restraint device and tagged with the alphanumeric code. The formulations were instilled (50 μl) into the conjunctival sac of both eyes 180, 120, 90 and 30 min before the first paracentesis; then 15, 30, 90 min after the first paracentesis. To perform the first paracentesis the animals were anaesthetized by intraveneous injection of 5 mg/kg Zoletil® (Virbac; 2.5 mg/kg tiletamine HCl and 2.5 mg/kg zolazepam HCl) and one drop of local anesthetic (Novesina®, Novartis) was administered to the eye. […]

[2] = tested on: leukocytes (PMN) in aqueous humor; experiment: Leukocytes (PMN) measurement in aqueous humor, rabbit paracentesis model; type: in vivo; details: aqueous humor at the second paracentesis; for PMN (number/μl): raw data per sample; for PMN numbers, Mean (number/μl): group mean
Experimental: Each rabbit was placed in a restraint device and tagged with the alphanumeric code. The formulations were instilled (50 μl) into the conjunctival sac of both eyes 180, 120, 90 and 30 min before the first paracentesis; then 15, 30, 90 min after the first paracentesis. To perform the first paracentesis the animals were anaesthetized by intraveneous injection of 5 mg/kg Zoletil® (Virbac; 2.5 mg/kg tiletamine HCl and 2.5 mg/kg zolazepam HCl) and one drop of local anesthetic (Novesina®, Novartis) was administered to the eye. Anterior chamber paracentesis was performed with a 26 G needle attached to a tuberculin syringe; the needle was introduced into the anterior chamber through the cornea, taking care not to damage the tissues. Two hours after the first paracentesis, the animals were sacrificed with 0.4 ml Tanax® (Intervet International B.V.) and the second paracentesis was performed. About 100 μl of aqueous humor were removed at the second paracentesis. Aqueous humor was immediately split in four aliquots and stored at −80° C. until analysis. Then both eyes were enucleated and the iris-ciliary body was carefully excised, placed in polypropylene tubes, and stored at −80° C. until analysis.
For the determination of the number of leukocytes we used a haemocytometer (Improved Neubauer Chamber; Brigth-line, Hausser Scientific) and a Polyvar 2 microscope (Reichert-Jung).

[3] = Side effects of corticosteroids (very preliminary data, not shown)

Cc1ccc2c(NCC(O)(CC(C)(C)c3cc(F)cc4c3OCC4)C(F)(F)F)cccc2n1 (stereo not drawn) [BOL]
Anti-inflammatory activity in the rabbit paracentesis model (conclusion) [1]: active; also recorded: as effective an anti-inflammatory drug as some of the commonly accepted prior-art steroids or NSAID
PMN (number/μl) ([2]; 1% topical formulation): 30 number/μl and 20 number/μl and 40 number/μl
Side effects of corticosteroids [3]: does not have some of the side effects of corticosteroids

C[C@@H]1C[C@H]2[C@@H]3CCC4=CC(=O)C=C[C@]4(C)[C@@]3(F)[C@@H](O)C[C@]2(C)[C@@]1(O)C(=O)CO [Dex, dexamethasone]
PMN numbers, Mean (number/μl) ([2]; 0.1% topical formulation): 30.000 number/μl

CC(C(=O)O)c1ccc(-c2ccccc2)c(F)c1 (stereo not drawn) [F, flurbiprofen]
PMN numbers, Mean (number/μl) ([2]; 0.03% topical formulation): 30.000 number/μl

CCOC(=O)O[C@]1(C(=O)OCCl)CC[C@H]2[C@@H]3CCC4=CC(=O)C=C[C@]4(C)[C@H]3[C@@H](O)C[C@@]21C [LE, loteprednol etabonate]
PMN (number/μl) ([2]; 0.5% topical formulation): 40 number/μl and 20 number/μl and 30 number/μl
